These results are taken from patent publication US20110039714A1, “Probes, Systems, and Methods for Drug Discovery” (priority 2001, published 2011).

The assay deals with T1, thrombin (Bos taurus, UniProt P00735).
T1 construct: purchased Sigma T-3399
Put plainly: biological assay for thrombin inhibitory activity (fluorogenic substrate). It counts as biochemical. Conditions: for inhibition at 50 µM: test probe concentration 50 μM; for inhibition at 100 µM: test probe concentration 100 μM. How it is done: The biological assay (28320) for thrombin inhibitory activity is detailed below. To Nunc 96-well black fluorescence plate wells is added 70 microliters of assay buffer, followed by 10 microliters of 1 millimolar substrate solution. Test probe (10 microliters in 30% DMSO) is then added to wells according to the desired concentrations for the assay. The mixture is incubated at 37° C. for 5 minutes, followed by addition of 10 microliters of thrombin (100 micrograms/mL in assay buffer), to make a final assay volume of 100 microliters. The plate is mixed gently and incubated 15 minutes at 37° C. Stop buffer (100 microliters) is added, and the plate is read by detecting emission at 460 nm. Percent inhibition of test compound is calculated by comparison with control wells. “Assay buffer” is composed of 100 mM KH2PO4, 100 mM Na2HPO4, 1 mM EDTA, 0.01% BRIJ-35, and 1 mM dithiothreitol (added fresh on the day assay is preformed). “Stop buffer” is composed of 100 mM Na—O(O)CCH2Cl and 30 mM sodium acetate which is brought to pH 2.5 with glacial acetic acid. Thrombin was purchased from Sigma (cat #T-3399). Thrombin substrate III fluorogenic was purchased from ICN (cat #195915). Sodium acetate, dithiothreitol, and Brij-35 were purchased from Sigma. Sodium monochloroacetate was purchased from Lancaster 223-498-3. Glacial acetic acid was purchased from Alfa Aesar (cat #33252). Thrombin was stored at −20° C. Thrombin substrate fluorogenic was stored at −20° C. (5 mM in DMSO).
Results are expressed as percentage inhibition at a given test probe concentration in the Table below;

`COc1ccc(CNC(=O)c2cc(Cl)ccc2NC(=O)c2n[nH]c3ccccc23)cc1OC` [Example B1] returned an inhibition at 50 µM of 10 to 39% and an inhibition at 100 µM of 40 to 74%.

Regarding `CCCCN(CCCC)CCCNC(=O)c1cc(Cl)ccc1NC(=O)c1n[nH]c2ccccc12` [Example B2], the inhibition at 50 µM lay in the range of 10 to 39% and the inhibition at 100 µM is 40 to 74%.

`C[C@@H](NC(=O)C(NC(=O)c1n[nH]c2ccccc12)C1CCNCC1)c1ccccc1` (stereo partly drawn) [Example B3]: the inhibition at 50 µM was 10 to 39% and the inhibition at 100 µM was in the range of 40 to 74%.
